Measurements from publication PMC4335062, “Data-Driven Prediction and Design of bZIP Coiled-Coil Interactions” (PLoS Computational Biology, 2015).
Read-outs that look alike come from different tables or passages of the source. Where no end group is shown, it is not given here.

Legend:
ATF6 = ATF6 (Homo sapiens, UniProt P18850); assay: Direct-binding FRET assay; set-up: made in house; settings: read-out: Kd
Protocol: (§1) The direct binding assay was performed manually in 384-well plates and is similar to a previously described assay. Wells were filled with 20 μL of 1 mM TCEP-HCl. A 4 μM stock of acceptor protein was made fresh in 1 mM TCEP-HCl, and 20 μL was titrated in 2-fold dilutions over the wells. […] The direct-binding FRET data were fit as previously described. Briefly, the Kd of the designed peptide homodimer was experimentally determined and used with previously determined target homodimer Kd values to determine the heterodimer Kd. The homodimer Kd values used for the human bZIPs were from; experiments done by […] et al. used the same protein constructs for the human bZIP proteins, the same buffer conditions, and the same assay. The fitting used a system of ordinary differential equations to describe the concentrations of homo and heterodimers formed by the donor (D) and acceptor (A) as a function of the heterodimer Kd. MATLAB was used to simulate the binding experiment for different Kd values, and the value that gave the best agreement between simulation and experiment was assigned. A minimum 15% change in the donor fluorescence upon titrating the acceptor peptide from 0 to 1000 nM was required for a fit to be attempted. If this minimum was not met, the interaction was classified as “NS” for no signal change. […] These interactions were marked “AS” to indicate anomalous signal. We attributed this to interactions between the peptides, the dyes and the walls of the assay plates at low concentrations. These curves could not be fit, given their unusual shapes at low concentrations of acceptor. For such curves, we removed the first five points and re-fit the data. […] One example of this is increasing concentrations of acceptor causing an increase in donor fluorescence.

BACH1 = BACH1 (Homo sapiens, UniProt O14867); assay: Direct-binding FRET assay; set-up: made in house; settings: read-out: Kd
Protocol: as §1

NFE2L1 = NFE2L1 (Homo sapiens, UniProt Q14494); assay: Direct-binding FRET assay; set-up: made in house; settings: read-out: Kd
Chain of NFE2L1 (Q14494 654-717 limits assumed): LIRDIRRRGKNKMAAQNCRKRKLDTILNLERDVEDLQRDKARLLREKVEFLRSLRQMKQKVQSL
Protocol: as §1

BACH2 = BACH2 (Homo sapiens, UniProt Q9BYV9); assay: Direct-binding FRET assay; set-up: made in house; settings: read-out: Kd
Chain of BACH2 (Q9BYV9 646-709 limits assumed): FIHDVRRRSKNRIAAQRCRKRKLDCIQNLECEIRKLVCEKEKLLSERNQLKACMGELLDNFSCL
Protocol: as §1

ATF4 = target: T1, ATF4 (Homo sapiens, UniProt P18848); assay: Competition binding assay, unlabeled design vs FITC-labeled design and TAMRA-labeled ATF4; settings: unlabeled design mixed with FITC-labeled design and TAMRA-labeled ATF4
T1 construct: made in house
T1 sequence (P18848 278-341 limits assumed): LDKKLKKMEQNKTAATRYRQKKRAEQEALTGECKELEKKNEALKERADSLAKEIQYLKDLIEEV
Protocol: In the competition form of the assay, a FRET pair was made by mixing 10 nM of the donor-labeled peptide with a specified concentration of the acceptor-labeled peptide in 1 mM TCEP-HCl, and 20 μL of this solution was added to the wells after unlabeled design was titrated in 2-fold dilutions over the wells to a final concentration ranging from 0 to 2.5 μM. The amount of acceptor used varied for each curve, taking into account the Kd of the FRET complex in order to obtain a good lower baseline for fitting purposes. Samples were equilibrated for one hour before reading the plates; repeated reading of the plates over several hours gave no change in signal.
For the competition experiments, the IC50 was determined in MATLAB by fitting the binding data to the equation signal=a+b−a/(1+x/c)^H , where a and b are the lower and upper baselines, c is the IC50 value, x is the inhibitor concentration, and the Hill coefficient H was set to 1. Ki values were calculated as in Fu et al..

[1] = 4°C, C-terminal fluorescein design as donor, TAMRA target titrated
[2] = 23°C, C-terminal fluorescein design as donor, TAMRA target titrated
[3] = 23°C, N-terminal rhodamine design, mean or single
[4] = 37°C, C-terminal fluorescein design as donor, TAMRA target titrated
[5] = 37°C, C-terminal rhodamine design, mean or single
[6] = 37°C, N-terminal rhodamine design, mean or single
[7] = 4°C, C-terminal rhodamine design, mean or single
[8] = 4°C, N-terminal rhodamine design, mean or single
[9] = 23°C, C-terminal rhodamine design, mean or single
[10] = 23°C, N-terminal rhodamine design, repeat 1
[11] = 23°C, N-terminal rhodamine design, repeat 2
[12] = 37°C, N-terminal rhodamine design, repeat 1
[13] = 37°C, N-terminal rhodamine design, repeat 2

Chain of ATF6 (P18850 306-369 limits assumed): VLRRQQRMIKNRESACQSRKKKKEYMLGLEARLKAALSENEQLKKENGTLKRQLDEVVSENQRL

EREAQLENRVAHLKEKNQELKAQNLHLKEALSEAQNRNQELKNDA [XBP1-d1]
Kd (ATF6; [1]): > 5000 nM
Kd (ATF6; [2]): > 1000 nM
Kd (ATF6; [3]): > 1000 nM
Kd (ATF6; [4]): > 1000 nM
Kd (ATF6; [5]): > 5000 nM
Kd (ATF6; 37°C, C-terminal rhodamine design, repeat 1): > 5000 nM
Kd (ATF6; 37°C, C-terminal rhodamine design, repeat 2): > 5000 nM
Kd (ATF6; 37°C, C-terminal rhodamine design, repeat 3): > 5000 nM
Kd (ATF6; [6]): > 1000 nM
Kd (BACH1; [1]): > 1000 nM
Kd (BACH1; [7]): > 1000 nM
Kd (BACH1; [8]): > 5000 nM
Kd (BACH1; [2]): > 1000 nM
Kd (BACH1; [9]): > 1000 nM
Kd (BACH1; [3]): > 1000 nM
Kd (BACH1; [4]): > 1000 nM
Kd (BACH1; [5]): > 1000 nM
Kd (BACH1; [6]): > 1000 nM
Kd (NFE2L1; [1]): > 1000 nM
Kd (NFE2L1; [7]): > 1000 nM
Kd (NFE2L1; [8]): > 1000 nM
Kd (NFE2L1; [2]): > 1000 nM
Kd (NFE2L1; [9]): > 1000 nM
Kd (NFE2L1; [3]): > 1000 nM
Kd (NFE2L1; [4]): > 1000 nM
Kd (NFE2L1; [5]): > 1000 nM
Kd (NFE2L1; [6]): > 1000 nM
Kd (BACH2; [1]): > 1000 nM
Kd (BACH2; [7]): > 1000 nM
Kd (BACH2; [8]): > 1000 nM
Kd (BACH2; [2]): > 1000 nM
Kd (BACH2; [9]): > 1000 nM
Kd (BACH2; [3]): > 1000 nM
Kd (BACH2; [4]): > 1000 nM
Kd (BACH2; [5]): > 1000 nM
Kd (BACH2; [6]): > 1000 nM

KRIAYLRQRIAELRNENHVLESRIQRMEKEKDALQQDRDHLEYEL [ATF5-d1]
Ki (ATF4): 6 nM
Kd (ATF6; [7]): > 5000 nM
Kd (ATF6; [8]): > 5000 nM
Kd (ATF6; [9]): > 1000 nM
Kd (ATF6; [3]): > 5000 nM
Kd (ATF6; [5]): > 1000 nM
Kd (ATF6; [6]): > 5000 nM
Kd (BACH1; [7]): > 1000 nM
Kd (BACH1; [8]): > 5000 nM
Kd (BACH1; [9]): > 1000 nM
Kd (BACH1; [3]): > 5000 nM
Kd (BACH1; [5]): > 5000 nM
Kd (BACH1; [6]): > 1000 nM
Kd (NFE2L1; [7]): > 5000 nM
Kd (NFE2L1; [8]): > 1000 nM
Kd (NFE2L1; [9]): > 5000 nM
Kd (NFE2L1; [3]): > 1000 nM
Kd (NFE2L1; [5]): > 5000 nM
Kd (NFE2L1; [6]): > 1000 nM
Kd (BACH2; [7]): > 5000 nM
Kd (BACH2; [8]): > 1000 nM
Kd (BACH2; [9]): > 5000 nM
Kd (BACH2; [3]): > 5000 nM
Kd (BACH2; [5]): > 5000 nM
Kd (BACH2; [6]): > 5000 nM

NQIKTLRTRLSKLRKDNLQLEKDIANLERKAKDLRAEKEQLEYEL [ATF4-d1]
Ki (ATF4): 48 nM
Kd (ATF6; [1]): > 1000 nM
Kd (ATF6; [7]): > 1000 nM
Kd (ATF6; [8]): > 1000 nM
Kd (ATF6; [2]): > 1000 nM
Kd (ATF6; [9]): > 1000 nM
Kd (ATF6; [3]): > 1000 nM
Kd (ATF6; [4]): > 1000 nM
Kd (ATF6; [5]): > 1000 nM
Kd (ATF6; [6]): > 1000 nM
Kd (BACH1; [1]): > 1000 nM
Kd (BACH1; [7]): > 5000 nM
Kd (BACH1; [2]): > 1000 nM
Kd (BACH1; [9]): > 1000 nM
Kd (BACH1; [10]): > 1000 nM
Kd (BACH1; [11]): > 5000 nM
Kd (BACH1; [4]): > 1000 nM
Kd (BACH1; [5]): > 1000 nM
Kd (BACH1; [6]): > 1000 nM
Kd (BACH1; [12]): > 1000 nM
Kd (BACH1; [13]): > 1000 nM
Kd (NFE2L1; [7]): > 5000 nM
Kd (NFE2L1; 4°C, N-terminal rhodamine design, repeat 1): > 1000 nM
Kd (NFE2L1; 4°C, N-terminal rhodamine design, repeat 2): > 1000 nM
Kd (NFE2L1; [9]): > 5000 nM
Kd (NFE2L1; [3]): > 1000 nM
Kd (NFE2L1; [10]): > 1000 nM
Kd (NFE2L1; [11]): > 1000 nM
Kd (NFE2L1; [5]): > 1000 nM
Kd (NFE2L1; [6]): > 1000 nM
Kd (NFE2L1; [12]): > 1000 nM
Kd (NFE2L1; [13]): > 1000 nM
Kd (BACH2; [1]): > 1000 nM
Kd (BACH2; [7]): > 5000 nM
Kd (BACH2; [8]): > 1000 nM
Kd (BACH2; [2]): > 5000 nM
Kd (BACH2; [9]): > 1000 nM
Kd (BACH2; [3]): > 5000 nM
Kd (BACH2; [4]): > 1000 nM
Kd (BACH2; [5]): > 5000 nM
Kd (BACH2; [6]): > 1000 nM
